Source: PubChem BioAssay (NCI)
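Interpolation was linear, between the two tested concentrations surrounding the appropriate level; five concentrations were tested over 48 hours in 96-well plates. GI50: concentration for 50% inhibition of growth. At the TGI there is no net growth.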

Key:
Assay in all cases: NCI-60 cell line screen, 48 h
SK-MEL-2 melanoma = tested on: SK-MEL-2 melanoma
MCF7 breast = tested on: MCF7 breast
SK-OV-3 ovarian = tested on: SK-OV-3 ovarian
NCI-H226 lung = tested on: NCI-H226 lung
KM12 colon = tested on: KM12 colon
HOP-92 NSCLC = tested on: HOP-92 NSCLC
MALME-3M melanoma = tested on: MALME-3M melanoma
ACHN renal = tested on: ACHN renal
HS 578T breast = tested on: HS 578T breast
786-0 renal = tested on: 786-0 renal
MDA-N = tested on: MDA-N

Row | SMILES | TGI (SK-MEL-2 melanoma) | TGI (MCF7 breast) | TGI (SK-OV-3 ovarian) | TGI (NCI-H226 lung) | TGI (KM12 colon) | TGI (HOP-92 NSCLC) | TGI (MALME-3M melanoma) | TGI (ACHN renal) | TGI (HS 578T breast) | TGI (786-0 renal) | TGI (MDA-N) | GI50 (SK-MEL-2 melanoma) | GI50 (MCF7 breast) | GI50 (SK-OV-3 ovarian) | GI50 (NCI-H226 lung) | GI50 (KM12 colon) | GI50 (HOP-92 NSCLC) | GI50 (MALME-3M melanoma) | GI50 (HS 578T breast) | GI50 (ACHN renal)
1 | Cc1ccc(N2Cc3c(ccc4ccccc34)OP2(=O)Oc2ccc(Cl)c(C)c2)cc1 (stereo not given) | > 100 µM | > 100 µM | > 100 µM | > 100 µM | > 100 µM | > 100 µM | > 100 µM |  |  |  |  |  |  |  |  |  |  |  |  | 
2 | CC(C)OP(=O)(OC(C)C)/C(I)=N/Nc1ccc([N+](=O)[O-])cc1 | > 100 µM |  | > 100 µM |  | > 100 µM | > 100 µM | > 100 µM | > 100 µM |  |  |  |  |  |  |  |  |  |  |  | 
3 | CCOC(=O)C1=CNC(C(=O)OCC)C1c1cccn1-c1ccc(Cl)cc1[N+](=O)[O-] (stereo not given) | 34.8 µM | 60.6 µM | > 100 µM | 50 µM | 47.5 µM | 51.7 µM |  | > 100 µM | 50.5 µM | 45.9 µM | 54.8 µM |  |  |  |  |  |  |  |  | 
4 | O=C1CC2(c3ccccc3)ON=C(c3ccccc3)N2c2ccccc2N1 (stereo not given) | > 100 µM | > 100 µM | 51.7 µM | > 100 µM | > 100 µM | 83.6 µM | > 100 µM | > 100 µM |  | > 100 µM | > 100 µM |  |  |  |  |  |  |  |  | 
5 | Oc1ccc(-c2nc(-c3cccnc3)c(-c3ccc(Cl)cc3)[nH]2)cc1O | 31.8 µM | 24.2 µM | 25.5 µM | 37.1 µM | 21.2 µM |  | 27 µM | 26.1 µM | 36.4 µM | > 100 µM | 25.1 µM |  |  |  |  |  |  |  |  | 
6 | N#CCc1n[nH]c(Cc2ccccc2)n1 | > 100 µM | > 100 µM | > 100 µM |  | > 100 µM | > 100 µM | > 100 µM | > 100 µM | > 100 µM | > 100 µM | > 100 µM |  |  |  |  |  |  |  |  | 
7 | COC(=O)CCC(=O)NC1=C(NCc2ccccc2)C(=O)c2ccccc2C1=O | 67.1 µM | 58.2 µM | > 100 µM | > 100 µM | > 100 µM | 48.2 µM |  | > 100 µM | > 100 µM | > 100 µM | 29.6 µM |  |  |  |  |  |  |  |  | 
8 | N[C@H](C(=O)O)[C@H]1ON=C(Cl)[C@@H]1O | > 550 µM | > 550 µM | > 231 µM | > 550 µM | > 550 µM | 269 µM | > 255 µM |  | 97.5 µM |  |  | 9.75 µM | 0.374 µM | 4.86 µM | 61.8 µM | 2.23 µM | 52.2 µM | 40.2 µM |  | 
9 | [N-]=[N+]=C1N=CN=C1c1ncn[nH]1 | > 100 µM | > 100 µM | > 100 µM | > 100 µM | > 100 µM | 45 µM | > 100 µM | > 100 µM |  | > 100 µM | > 100 µM |  |  |  |  |  |  |  |  | 
10 | C[n+]1c(-c2ccc(/C=N/NC(=N)N/N=C/c3ccc(-c4cn5cc(Cl)ccc5[n+]4C)cc3)cc2)cn2cc(Cl)ccc21 |  | > 100 µM | > 100 µM |  | > 100 µM |  |  | > 100 µM | > 100 µM | > 100 µM |  |  |  |  |  |  |  |  |  | 
11 | Cc1cccc2c(=O)c([Se]c3coc4c(C)cccc4c3=O)coc12 | 33.5 µM |  | 31.5 µM | 33.1 µM | 26.8 µM | 40.5 µM | 33.6 µM | 38.3 µM |  | 31 µM |  |  |  |  |  |  |  |  |  | 
12 | BrCCCCCOc1ccc(-c2c3ccccc3c(-c3ccc(OCCCCCBr)cc3)c3ccccc23)cc1 | > 100 µM | > 100 µM | > 100 µM | > 100 µM | > 100 µM |  |  | > 100 µM | > 100 µM | > 100 µM | > 100 µM |  |  |  |  |  |  |  |  | 
13 | CC(NC(=O)C(C)NC(=O)C(N)CCP(C)(=O)O)C(=O)O (stereo not given) | > 100 µM | > 100 µM | > 100 µM | > 100 µM | > 100 µM | > 100 µM | > 100 µM |  |  |  |  |  |  |  |  |  |  |  |  | 
14 | CC(=O)[C@@]1(C)CC2(CCN(C)CC2)OC1C (stereo not given in full) |  |  | > 100 µM | > 100 µM | > 100 µM | > 100 µM | > 100 µM | > 100 µM |  | > 100 µM | > 100 µM |  |  |  |  |  |  |  |  | 
15 | Nc1nc(SCc2ccc([N+](=O)[O-])cc2)nc2c1ncn2C1OC(COP(=O)(O)O)C(O)C1O (stereo not given) | > 100 µM |  | > 100 µM | > 100 µM | > 100 µM | > 100 µM | > 100 µM | > 100 µM |  |  |  |  |  |  |  |  |  |  |  | 
16 | COC(=O)C1C/C(=C/N(C)C)C(=S)N1 (stereo not given) | > 100 µM | > 100 µM | > 100 µM |  | > 100 µM | > 100 µM | > 100 µM | > 100 µM | > 100 µM | > 100 µM | > 100 µM |  |  |  |  |  |  |  |  | 
17 | Cc1c(Cl)c2ccccc2n1S(=O)(=O)c1ccccc1 | > 100 µM |  |  | > 100 µM | > 100 µM | 54.2 µM | > 100 µM | > 100 µM |  | > 100 µM |  |  |  |  |  |  |  |  |  | 
18 | OC(c1cc2ccccc2o1)c1cc2ccccc2s1 (stereo not given) | > 10 µM | > 10 µM | > 10 µM | > 10 µM | > 10 µM | > 10 µM |  | > 10 µM | > 10 µM | > 10 µM | > 10 µM |  |  |  |  |  |  |  |  | 
19 | Cc1nc(C)c(C(=O)NNC(N)=S)cc1C(=O)NNC(N)=S | > 100 µM | > 100 µM | > 100 µM | > 100 µM | > 100 µM | > 100 µM |  | > 100 µM | > 100 µM | > 100 µM | > 100 µM |  |  |  |  |  |  |  |  | 
20 | CCOC(=O)c1ccc(Nc2c3c(nc4ccccc24)CCCC3)cc1 | > 100 µM | > 100 µM | > 100 µM | > 100 µM | > 100 µM | > 72.6 µM |  | > 100 µM | > 100 µM | > 100 µM |  |  |  |  |  |  |  |  |  | 
21 | O=C(Nc1cccc(-n2ccc3c(NC(=O)c4ccccc4)nccc32)c1)Nc1cc(C(F)(F)F)cc(C(F)(F)F)c1 | 4.68 µM | > 50 µM |  | 16.4 µM | 4.7 µM | 3.95 µM | 35.8 µM | 7.61 µM | > 50 µM |  |  | 1.32 µM | 1.65 µM |  | 1.66 µM | 1.53 µM | 0.853 µM | 3.09 µM | 1.44 µM | 1.48 µM
